Measurements reported in patent US9758559B2, “Short peptides derived from VDAC1, compositions and methods of use thereof” (B.G. NEGEV TECHNOLOGIES AND APPLICATIONS LTD., AT …, priority 2013, dated 2017).
Where a SMILES comes first, the peptide text is derived from it. [ ]: non-standard residue; d: D form.

Key:
glioblastoma U-87 cells = test: ATP quantification (CellTiter-Glo); type: cell-based, human; settings: 3 h incubation
Method: U-87 cells were seeded in 96-well plates (2×10^6/ml), incubated for 3 h with the indicated concentrations of D-Δ1-14N-Ter-Antp (SEQ ID NO:9), washed twice with PBS and incubated with the CellTiter-Glo reagent (Promega). Luminescence was recorded using an Infinite M1000 microplate reader (Tecan Trading, Mannedorf, Switzerland).
VDAC1 is a key component in regulating the energy production of the cell. It is known that cancer cells are characterized by elevated energy demand. The effects of D-Δ(1-14) N-Ter-Antp on the mitochondrial inner membrane polarization and cellular ATP level were examined using glioblastoma U-87 cells. U-87 cells were incubated for 3 h with the various concentrations of D-Δ1-14N-Ter-Antp or with FCCP (10 μM, control for depolarization) for 1 h.

[1] = tested on: glioblastoma cell line U-87; test: Cytochrome c release from mitochondria to cytosol (immunoblot); type: cell-based, human; settings: U-87 cells, concentration-dependent
Method: Release of cytochrome c (Cyt c) from mitochondria to the cytosol was measured by immunoblots. Cells were incubated for 5 h with the indicated concentration of the peptide, harvested, washed twice with PBS and gently resuspended in ice-cold buffer (100 mM KCl, 2.5 mM MgCl2, 250 mM sucrose, 20 mM HEPES/KOH pH 7.5, 0.2 mMEDTA, 1 mM dithiothreitol, 1 μg/ml leupeptin, 5 μg/ml cytochalasin B and 0.1 mM phenylmethylsulfonyl fluoride) containing 0.025% digitonin and incubated for 10 min on ice. Samples were centrifuged at 10,000 g at 4° C. for 5 min to obtain the supernatants (cytosolic extracts free of mitochondria) and the pellets (fraction that contains mitochondria). The supernatants were analyzed by SDS-PAGE and immunoprobed using anti-Cyto c antibodies (1:2000, BD Pharmingen™ Cat #556433), and then with secondary horseradish peroxidase (HRP)-conjugated anti-mouse antibodies.
The effect of D-Δ(1-14) N-Ter-Antp on apoptosis was examined in the glioblastoma cell line U-87. U-87 cells were incubated with and without the peptide, treated with digitonin (0.02%) and the release of cytochrome c from mitochondria to the cytosolic fraction was analyzed by immunoblotting.

T-Rex-293 cells = type: cell-based
Source text: (§1) Data represent mean values, n=3.
(§2) It was previously disclosed that peptide Antp-LP4 (SEQ ID NO:23) derived from another part of VDAC1, selectively induce cell death of cancerous cells co-expressing the cell surface markers CD19 and CD5 (U.S. Pat. No. 8,648,045) as well as other cancer cells as HeLa.

[2] = tested on: human prostate cancer cell lines (PC3); type: cell-based
Source text: as §1, §2

[3] = tested on: glioblastoma xenografts (U87 cells); test: Tumor growth of U87 glioblastoma xenografts in nude mice; type: in vivo; settings: xenografts injected with 10 μl of 20 or 40 μM solutions
Method: U87 cells were inoculated into male nude mice (7×10^6 cells/mouse). Tumor volumes were monitored (using a digital caliper) and on day 11, the mice were divided into […] (5 mice per group), with each mouse containing a tumor with a volume between 100-200 mm^3 and similar average volumes measured per group. The four mice groups were subjected to the following treatments: Xenografts were injected with 0.26% DMSO (control), with D-Δ1-14N-Ter-Antp (10 μl of 20 or 40 μM solutions) or with the previously disclosed Tf-LP4 peptide (10 μl of a 20 μM solution).

[4] = target: T1, Mitochondria-Bound Hexokinase 1 (HK-1) (Rattus norvegicus, UniProt P05708); test: Detachment of mitochondria-bound HK-1-GFP in HeLa cells (confocal microscopy); type: cell-based; settings: HeLa cells expressing HK-1-GFP, 6 h
T1 construct: expressed in transfected cells; host or cells: HeLa cells
T1 sequence (P05708 1-918): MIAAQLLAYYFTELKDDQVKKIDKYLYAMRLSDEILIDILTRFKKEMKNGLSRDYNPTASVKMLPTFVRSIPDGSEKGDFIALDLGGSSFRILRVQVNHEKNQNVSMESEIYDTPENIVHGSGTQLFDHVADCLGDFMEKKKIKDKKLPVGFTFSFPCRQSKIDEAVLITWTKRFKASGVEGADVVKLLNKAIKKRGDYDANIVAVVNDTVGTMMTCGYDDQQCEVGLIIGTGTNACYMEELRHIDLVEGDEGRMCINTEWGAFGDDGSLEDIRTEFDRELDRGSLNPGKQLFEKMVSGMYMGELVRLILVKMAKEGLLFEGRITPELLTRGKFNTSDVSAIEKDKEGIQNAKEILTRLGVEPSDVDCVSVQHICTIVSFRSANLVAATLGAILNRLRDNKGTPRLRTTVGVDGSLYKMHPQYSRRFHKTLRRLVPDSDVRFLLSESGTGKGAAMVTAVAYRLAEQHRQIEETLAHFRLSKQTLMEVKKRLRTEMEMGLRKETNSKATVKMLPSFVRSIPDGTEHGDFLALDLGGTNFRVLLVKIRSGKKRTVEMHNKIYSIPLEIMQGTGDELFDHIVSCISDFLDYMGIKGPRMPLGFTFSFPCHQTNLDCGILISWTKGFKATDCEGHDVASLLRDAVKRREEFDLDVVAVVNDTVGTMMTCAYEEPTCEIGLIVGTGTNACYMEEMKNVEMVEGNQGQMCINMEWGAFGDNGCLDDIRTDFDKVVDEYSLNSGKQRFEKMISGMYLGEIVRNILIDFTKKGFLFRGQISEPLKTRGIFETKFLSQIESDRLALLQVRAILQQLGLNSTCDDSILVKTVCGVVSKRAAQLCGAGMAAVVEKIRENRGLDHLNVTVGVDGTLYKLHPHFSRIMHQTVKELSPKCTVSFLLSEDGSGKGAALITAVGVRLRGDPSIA
Method: To visualize HK detachment induced by the D-Δ(1-14) N-terminal-Antp peptide, HeLa cells (3×10^5) were grown on Poly-D-Lysine (PDL)-coated coverslips in a 60 mm dish and transfected with pEGFP-HK-I or with plasmid pEGFP. HK-I-GFP fusion protein, in which GFP was connected to the HK-I C-terminal (pEGFP-HK-I), was constructed using an EcoR1 restriction site to introduce GFP into the 3′ (at the stop codon) of HK1 in plasmid pcDNA3.1 by site-directed mutagenesis with overlapping PCR amplification, using the following primers: 5′-[…]-3; (forward, SEQ ID NO:24) and 5′-[…]-3; (reverse, SEQ ID NO:25).
After 48 h, cells were incubated for 6 h with a serum-free medium containing 0.4% DMSO or with the indicated concentration of D-Δ(1-14) N-Ter-Antp peptide. Cells were washed with PBS, fixed for 20 min with 4% paraformaldehyde prepared in PBS, rinsed for 30 min in PBS and cell imaging was carried out by confocal microscopy (Olympus 1×81).

CC[C@@H](C)[C@@H](NC(=O)[C@@H](CCCCN)NC(=O)[C@H](NC(=O)[C@@H](CCC(N)=O)NC(=O)[C@@H](CCCNC(=N)N)NC(=O)[C@@H](CC(C)C)NC(=O)CNC(=O)[C@@H](Cc1ccccc1)NC(=O)CNC(=O)[C@@H](Cc1ccc(O)cc1)NC(=O)CNC(=O)[C@@H](CCCCN)NC(=O)[C@H](NC(=O)[C@@H](Cc1ccccc1)NC(=O)[C@H](NC(=O)[C@@H](CC(=O)O)NC(=O)[C@H](N)CCCNC(=N)N)C(C)C)[C@H](C)O)[C@H](C)CC)C(=O)N[C@H](Cc1c[nH]c2ccccc12)C(=O)N[C@H](Cc1ccccc1)C(=O)N[C@H](CCC(N)=O)C(=O)N[C@H](CC(N)=O)C(=O)N[C@H](CCCNC(=N)N)C(=O)N[C@H](CCCNC(=N)N)C(=O)N[C@H](CCSC)C(=O)N[C@H](CCCCN)C(=O)N[C@H](Cc1c[nH]c2ccccc12)C(=O)N[C@H](CCCCN)C(=O)N[C@H](CCCCN)C(=O)O [D-Δ(1-14) N-Ter-Antp, ALL D-RDVFTKGYGFGL RQIKIWFQNRRMKWKK] (H-[dR][dD][dV][dF][dT][dK]G[dY]G[dF]G[dL][dR][dQ][dI][dK][dI][dW][dF][dQ][dN][dR][dR][dM][dK][dW][dK][dK]-OH)
cellular ATP level (glioblastoma U-87 cells): almost complete reduction of cellular ATP level
release of cytochrome c from the mitochondria [1]: significantly induced
induction of cell death, in words (T-Rex-293 cells; T-Rex-293 control cells): some induction of cell death
IC50 (T-Rex-293 cells; non-malignant cells TRex-293, read-out: IC50, cell death, non-malignant cells TRex-293): > 14.3 µM
induction of cell death, in words ([2]; PC3 cells): dramatic cell death
IC50 ([2]; prostate cell line PC3, read-out: IC50, cancer cell death, PC3): 1.51 µM
tumor size [3]: significantly reduced the tumor size
HK-1-GFP detachment from the mitochondria [4]: diffusion of HK-1-GFP out into the cytosol is observed
